Reference: patent publication US12275976B2, “Phloroglucinol-resistant cell, in particular yeast” (COMPAGNIE GENERALE DES ETABLISSEMENTS MICHELIN, priority 2019, dated 2025)
Values after ≈ are worked out from the molar mass of the structure shown.

Tests used:
[1] = system: bacterial strain of Escherichia coli (ECAO50, derived from Escherichia coli K12); assay: microbe, parasite or virus in culture; conditions: 24 h
Procedure: (§1) In order to know the threshold of phloroglucinol tolerance of bacteria or of yeasts, growth kinetics were prepared in the presence of various concentrations of phloroglucinol. These preliminary experiments aimed to evaluate their EC50.
(§2) The experiment was carried out in the following way. The phloroglucinol was dissolved at the concentration of 15 g·l^−1 in complete medium (Yeast Extract 1%+BactoPeptone 2%) containing 2% glucose as carbon source (YPD medium). The culture media containing lower phloroglucinol concentrations were obtained by diluting this first medium in the same YPD medium containing 2% glucose.
(§3) In order to carry out the experiment, the wild-type yeast or bacterial cells were inoculated at an OD600 nm of 0.05 into the various media, thus containing, as soon as the cultures were started, either 0 (positive control for growth indicated C+), 1, 2.5, 5, 7.5, 10 or 15 g·l^−1 of phloroglucinol. The cultures were carried out in 48-well microplates, at 28° C. for the yeasts, at 37° C. for the bacterial strain, with vigorous shaking for 24 h. Two yeast strains (Saccharomyces cerevisiae) and one bacterial strain (Escherichia coli) were tested.

SNQ2 = target: T1, SNQ2 (Saccharomyces cerevisiae, UniProt P32568); assay: Phloroglucinol tolerance of yeast strains overexpressing PDRs (OD600 nm at 24 h); type: cell-based; conditions: inferred from SNQ2 overexpression lifting toxicity at 20 g·l^−1 phloroglucinol
T1 construct: expressed in transfected cells; host or cells: Saccharomyces cerevisiae, gene integrated at the JLP1 locus under the pCCW12 promoter (clones YA2786-1 and YA2786-2)
Excerpt: The genes encoding the PDR proteins were amplified from yeast (W303-1A) genomic DNA by PCR (“polymerase chain reaction”) and cloned in plasmids. The accuracy of the sequence was verified by sequencing. The various genes encoding the PDRs were integrated into the genome at the JLP1 locus according to the structure described in FIG. 4A. Each strain constructed bears a YA number, and a library of 28 yeast strains overexpressing a PDR transporter was thus created, in a proportion of two clones per transporter.
In order to test the impact of the PDR overexpression on the phloroglucinol tolerance at high phloroglucinol concentration (>15 g·l^−1), the strains were cultured as follows.
The phloroglucinol was dissolved at the concentration of 20 g·l^−1 in YPD medium containing 2% glucose as carbon source. In order to carry out the experiment, the yeasts expressing each PDR were inoculated at an OD600 nm of 0.05. The cultures were carried out in 48-well microplates, incubated with agitation at 28° C. for 24 h. After 24 h, the OD600 nm is measured. FIG. 5 represents the OD600 nm values obtained at the end of the culture.

CC787-1B yeast strain = assay: Growth kinetics of yeast cells in the presence of increasing phloroglucinol concentrations
Procedure: as §1, §2, §3

yeast cells = assay: Phloroglucinol toxicity in yeast with ethanol added after 20 h of culture; conditions: 20 g/l of phloroglucinol, 50 g·l^−1 ethanol added at 20 h, read at 48 h
Procedure: The toxicity of phloroglucinol in the presence of ethanol added after 20 h of culture was tested.
The experiments were carried out in an Erlenmeyer flask with vigorous stirring in complete medium containing 2% glucose as carbon source. The yeast cells were inoculated at an OD600 nm of 0.05 from precultures in complete medium. The cultures are completed with increasing concentrations of phloroglucinol (0, 1, 5, 10, 15, 20 g/l) and incubated for 48 h. Two series of Erlenmeyer flasks were prepared. In the second series, 50 g·l^−1 of ethanol are added at 20 h. The growth is monitored by taking samples at 18 h, 20 h, 22 h, 24 h, 42 h and 48 h, and measuring the OD600 nm.

T1 sequence (P32568 whole entry): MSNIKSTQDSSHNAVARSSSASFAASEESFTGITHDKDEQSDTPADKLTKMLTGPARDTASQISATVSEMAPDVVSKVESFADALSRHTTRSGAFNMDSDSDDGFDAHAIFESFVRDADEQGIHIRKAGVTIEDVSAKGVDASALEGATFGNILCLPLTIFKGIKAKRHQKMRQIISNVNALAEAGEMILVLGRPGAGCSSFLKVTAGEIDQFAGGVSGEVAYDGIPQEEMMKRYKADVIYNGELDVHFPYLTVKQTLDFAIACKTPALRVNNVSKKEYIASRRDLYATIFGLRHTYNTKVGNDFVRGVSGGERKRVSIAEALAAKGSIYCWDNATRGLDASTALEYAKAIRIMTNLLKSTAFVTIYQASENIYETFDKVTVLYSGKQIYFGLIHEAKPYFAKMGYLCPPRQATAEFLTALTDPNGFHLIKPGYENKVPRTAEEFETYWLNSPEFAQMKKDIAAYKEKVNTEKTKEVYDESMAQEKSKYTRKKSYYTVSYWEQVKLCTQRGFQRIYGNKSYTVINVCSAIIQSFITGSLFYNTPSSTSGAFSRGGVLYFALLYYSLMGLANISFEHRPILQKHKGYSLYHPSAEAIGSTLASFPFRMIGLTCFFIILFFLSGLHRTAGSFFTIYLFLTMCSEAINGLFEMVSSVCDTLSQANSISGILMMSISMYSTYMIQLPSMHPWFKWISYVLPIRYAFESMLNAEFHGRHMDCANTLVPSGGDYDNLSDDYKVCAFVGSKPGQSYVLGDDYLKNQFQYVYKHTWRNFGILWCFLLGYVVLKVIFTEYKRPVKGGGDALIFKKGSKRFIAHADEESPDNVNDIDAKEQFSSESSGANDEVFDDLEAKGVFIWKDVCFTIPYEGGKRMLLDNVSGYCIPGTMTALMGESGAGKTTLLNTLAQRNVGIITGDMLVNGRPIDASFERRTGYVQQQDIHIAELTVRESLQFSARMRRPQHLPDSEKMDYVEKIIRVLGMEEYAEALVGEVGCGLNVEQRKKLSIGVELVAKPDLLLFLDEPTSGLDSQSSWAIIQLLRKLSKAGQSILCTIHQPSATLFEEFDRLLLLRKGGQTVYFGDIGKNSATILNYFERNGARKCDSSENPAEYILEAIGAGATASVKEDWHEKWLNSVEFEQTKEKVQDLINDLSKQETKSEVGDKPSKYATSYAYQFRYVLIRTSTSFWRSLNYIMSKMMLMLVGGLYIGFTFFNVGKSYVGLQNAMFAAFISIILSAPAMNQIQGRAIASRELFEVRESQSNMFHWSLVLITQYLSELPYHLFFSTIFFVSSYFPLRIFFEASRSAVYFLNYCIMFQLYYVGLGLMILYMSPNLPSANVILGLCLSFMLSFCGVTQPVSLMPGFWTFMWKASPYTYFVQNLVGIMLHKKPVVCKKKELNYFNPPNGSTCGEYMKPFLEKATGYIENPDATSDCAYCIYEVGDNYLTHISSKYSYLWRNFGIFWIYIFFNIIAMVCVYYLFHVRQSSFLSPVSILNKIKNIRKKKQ

Structure (SMILES): Oc1cc(O)cc(O)c1 [phloroglucinol, benzene-1,3,5-triol]
- concentrations giving total inhibition of the growth ([1]; 37° C.): greater than or equal to 2.5 g·l^−1
- EC50 ([1]; Escherichia coli, read-out: EC50 of phloroglucinol on growth): ~750 µg/mL (≈ 5.95 mM)
- inhibition of the growth ([1]; at the concentration of 1 g·l^−1, 37° C.): very considerable inhibition of the growth
- transporter substrate status (SNQ2): substrate for SNQ2
- EC50 (CC787-1B yeast strain; Saccharomyces cerevisiae, 24 h, read-out: EC50 of phloroglucinol on growth): > 10000 µg/mL
- concentration from which phloroglucinol toxicity on yeast cells is apparent (CC787-1B yeast strain; conclusion): ≥ 15000 µg/mL
- concentration at which significant inhibition of the growth is observed (CC787-1B yeast strain; only in this medium among 1-15 g·l^−1, 28° C., 24 h): 15000 µg/mL
- phloroglucinol inhibition in the presence of ethanol versus without ethanol (yeast cells): slightly greater
